For data set [1], the system named is Huh7 cells expressing a subgenomic RNA replicon of Con1 (genotype 1b) sequence origin.
A further data set is described as follows: in vitro. Conditions: human.
For data set [2], the system named is Huh7 cells expressing a subgenomic RNA replicon of Con1 (genotype 1b) sequence origin. The data set can be described thus: microbe, parasite or virus in culture. The following applies: Hepatitis C virus; for Emax: Huh-7, read-out: Max Effect@CC30 (inhibition).
[3] abbreviates: Huh-7, read-out: IC50 (uM) [SG].

The text below walks through data of patent US20100009970A1, “COMPOSITIONS AND METHODS FOR TREATMENT OF VIRAL DISEASES” (Combinatorx (Singapore) Pte. Ltd., priority 2008, published 2010).

Where a name gives a salt, the structure may show the parent alone. Read-outs that look alike come from different tables or passages of the source.

`Nc1ccc(C(=O)O)c(O)c1` [P-Aminosalicylic acid, reference compound] yielded an IC50 in data set [1] of 13.2 µM.
On the same count and under the same terms, to `CC1=C(/C=C/C(C)O)C(C)(C)CCC1` (stereo not drawn) [Beta-Ionol] belongs 21 µM.
On the same count and under the same terms, in the case of `COc1cc2ncnc(Nc3cccc(Cl)c3)c2cc1OC` [Tyrphostin Ag 1478, tyrphostin AG 1478, reference compound] it was 3.41 µM; in that of `O=C(O)CN(CC(=O)O)c1ccccc1OCCOc1ccccc1N(CC(=O)O)CC(=O)O` [1,2-Bis-(2-aminophenoxy)ethane N,N,N,N,-tetreacetic acid, reference compound], 14.5 µM.
Still for that read-out and setting: to `CC(=O)[O][Pt]([NH2])([Cl])([Cl])([NH]C1CCCCC1)[O]C(C)=O` [Satraplatin, reference compound] belongs 4.8 µM; to `CCCCC(CC)COC(=O)c1ccc(N(C)C)cc1` (centres unmarked) [Padimate O], 5.44 µM; to `C[C@]12CC[C@H]3[C@@H](CCC4=CC(=O)CC[C@@]43C)[C@@H]1CC[C@@H]2C(=O)CO` [Desoxycorticosterone (e.g., acetate), deoxycorticosterone, reference compound], 14.7 µM.
With `CC(=O)O[C@@]12CO[C@@H]1C[C@H](O)[C@@]1(C)C(=O)[C@H](O)C3=C(C)[C@@H](O)C[C@@](O)([C@@H](OC(=O)c4ccccc4)[C@H]21)C3(C)C` [10-Deacetylbaccatine Iii, reference compound], inhibition in data set [1] was half-maximal at 10.3 µM (IC50).
Take `O=[N+]([O-])c1ccc2nc(N3CCNCC3)ccc2c1` [6-Nitroquipazine, reference compound]: 16.4 µM corresponded to half-maximal inhibition in data set [1] (IC50).
The same measure, in the same setting: in the case of `COc1ccc(C[C@H]2NC[C@H](O)[C@H]2OC(C)=O)cc1` [Anisomycin, reference compound] it was 0.608 µM; in that of `Cc1ccc(NCCCc2ccccc2)c(N)c1` [JSH-23, reference compound], 2.55 µM; in that of `N#C/C(=C/c1ccc(O)c(O)c1)C(=O)NCc1ccccc1` [AG-490, tyrphostin AG-490, reference compound], 5.03 µM.
The same measure, in the same setting: in the case of `OCCN1CCN(CC/C=C2/c3ccccc3Sc3ccc(C(F)(F)F)cc32)CC1` [Flupentixol (e.g., dihydrochloride), Flupentixol, reference compound] it was 3.6 µM.
Same read-out and setting: in the case of `C/C1=C2/[N-][C@H]([C@H](CC(N)=O)[C@@]2(C)CCC(=O)NC[C@H](C)OP(=O)([O-])O[C@H]2[C@@H](O)[C@@H](n3cnc4cc(C)c(C)cc43)O[C@@H]2CO)[C@]2(C)N=C(/C(C)=C3N=C(/C=C4N=C1[C@@H](CCC(N)=O)C\4(C)C)[C@@H](CCC(N)=O)[C@]\3(C)CC(N)=O)[C@@H](CCC(N)=O)[C@]2(C)CC(N)=O.[CH3-].[Co+3]` [Mecobalamin, mecobalamin, reference compound] it was 0.179 µM; in that of `C[C@@H]1C[C@H]2[C@@H]3CCC4=CC(=O)C=C[C@]4(C)[C@@]3(Cl)[C@@H](O)C[C@]2(C)[C@@]1(O)C(=O)CCl` [Mometasone (e.g., furoate), mometasone, reference compound], 11.3 µM.
The compound `CC(C)(C)c1cc(O)c(C(C)(C)C)cc1O` [BHQ, reference compound] yielded a concentration for half-maximal inhibition (IC50) in data set [1] of 23.3 µM.
On the same count and under the same terms, in the case of `O=c1cc(N2CCOCC2)oc2c1ccc1ccccc12` [DNA-PK inhibitor II, reference compound] it was 6.52 µM; in that of `CCN(CC)c1ccc(C(=C2C=CC(=[N+](CC)CC)C=C2)c2cc(S(=O)(=O)O)ccc2S(=O)(=O)[O-])cc1` [Isosulfan Blue, reference compound], 24.9 µM; in that of `O=C1Nc2ccc3ncsc3c2/C1=C/c1cnc[nH]1` [PKR inhibitor, reference compound], 1.75 µM.
On the same count and under the same terms, to `Cc1cc(N)c2ccccc2c1O` [Vitamin K5] belongs 19.6 µM.
Still for that read-out and setting: to `Nc1ccccc1NC(=O)CCCCCCC(=O)Nc1ccccc1` [CAY10433, reference compound] belongs 7.88 µM; to `C/C1=C2/[N-]C([C@H](CC(N)=O)[C@@]2(C)CCC(=O)NC[C@@H](C)OP(=O)([O-])O[C@H]2[C@@H](O)[C@@H](n3cnc4cc(C)c(C)cc43)O[C@@H]2CO)[C@]2(C)N=C(/C(C)=C3N=C(/C=C4N=C1[C@@H](CCC(N)=O)C\4(C)C)[C@@H](CCC(N)=O)[C@]\3(C)CC(N)=O)[C@@H](CCC(N)=O)[C@]2(C)CC(N)=O.[CH2-][C@H]1O[C@@H](n2cnc3c(N)ncnc32)[C@@H](O)[C@@H]1O.[Co+3]` [Cobamamide, cobamamide, reference compound], 0.41 µM; to `CCC(Cc1c(I)cc(I)c(O)c1I)C(=O)O` (centres unmarked) [Iophenoxic acid, reference compound], 10.6 µM.
In the case of `CC(=O)ON=C1C(=O)N(Cc2cc(Cl)ccc2Cl)c2ccc(Cl)cc21` [UCH-L1 inhibitor, reference compound], the IC50 in data set [1] came out at 17.2 µM.
Same read-out and setting: in the case of `COc1ccc(-c2nc(C(=O)N3CCN(C)CC3)sc2-c2ccc(OC)cc2)cc1` [FR122047, reference compound] it was 23 µM; in that of `O=C1C(Cl)=C(NCCN2CCOCC2)C(=O)c2ncccc21` [NSC 663284, reference compound], 0.614 µM; in that of `N#CC(C#N)=Cc1cc(O)c(O)c(O)c1` [Tyrphostin 25, tyrphostin 25, reference compound], 16 µM.
Compound `CSc1ccc(Oc2ccc(S(N)(=O)=O)cc2CN2CCN(c3ccncc3)CC2)cc1C` [Compound 91, 4-(3-methyl-4-(methylthio)phenoxy)-3-((4-(pyridin-4-yl)piperazin-1-yl)methyl)benzenesulfonamide] yielded a CC50 in “in vitro” (CC50 (uM) [SG]) of 9.86 µM. The IC50 in data set [2] (setting [3]) stood at 4.91 µM.
With `CSc1ccc(Oc2ccc(S(N)(=O)=O)cc2CNC[C@H](C)O)cc1C` [Compound 69, (S)-3-((2-hydroxypropylamino)methyl)-4-(3-methyl-4-(methylthio)phenoxy)benzenesulfonamide], the CC50 in “in vitro” (CC50 (uM) [SG]) is greater than 50 µM. Moreover, the IC90 in data set [2] (Huh-7) stood at 10.4 µM. Moreover, in data set [2] (setting [3]), the IC50 amounted to 3.54 µM.
The like results for `CNCc1cc(S(N)(=O)=O)ccc1Oc1ccc(C)c(C)c1` [Compound 84, 4-(3,4-dimethylphenoxy)-3-((methylamino)methyl)benzenesulfonamide] were, in that order, 46.7 µM, 39.6 µM and 28.1 µM.
`CSc1ccc(Oc2ccc([N+](=O)[O-])cc2CN(C)C)cc1C` [Compound 54, N,N-dimethyl-1-(2-(3-methyl-4-(methylthio)phenoxy)-5-nitrophenyl)methanamine] showed a CC50 in the data set “in vitro” (CC50 (uM) [SG]) greater than 50 µM. In data set [2] (Huh-7), this compound showed an IC90 of 7.07 µM. For the same compound, the IC50 in data set [2] (setting [3]) is 6.18 µM. In addition, the Emax in data set [2] amounted to 97.9%.
`CN[C@H]1CC[C@@H](c2ccc(Cl)c(Cl)c2)c2ccc(NS(=O)(=O)c3ccccc3)cc21` [N-((5S,8S)-5-(3,4-dichlorophenyl)-8-(methylamino)-5,6,7,8-tetrahydronaphthalen-2-yl)benzenesulfonamide]: the CC50 in “in vitro” (CC50 (uM)) and in “in vitro” (CC50 (uM) [SG]) was 3.91 µM each time. For the same compound, the IC50 in data set [2] (Huh-7) and in data set [2] (setting [3]) was 3.48 µM each time. Also, the IC90 in data set [2] (Huh-7) came to 3.83 µM.
Take `COc1ccc(Oc2ccc(Br)cc2CN(C)C)cc1` [Compound 42, (5-bromo-2-(4-methoxyphenoxy)phenyl)-N,N-dimethylmethanamine]: the CC50 in the data set “in vitro” (CC50 (uM) [SG]) is greater than 50 µM. In addition, the IC50 in data set [2] (setting [3]) stood at 30.8 µM. Also, in data set [2], the Emax was determined as 51.7%.
